According to patent publication US8846914B2, “Compositions to effect neuronal growth” (Neuralstem, Inc., priority 2003, dated 2014):
Like-named read-outs stand apart in the source and are kept apart here.

Key:
[1] = tested on: human hippocampal stem cells differentiated for 3-4 weeks; assay: Neuroprotection against staurosporine-induced neurodegeneration; assay type: cell-based; conditions: 125 nM staurosporine, twenty-four hour, 10 μM agent; for inhibition at 10 µM: Homo sapiens, 24 h
Experimental: FIG. 7A is a bar graph illustrating an example of a neuroprotection profile of the compounds against staurosporine-induced human hippocampal neurodegeneration as indicated by loss of neurons after twenty-four hour treatment with staurosporine by counting the remaining number of neurons, an increase in […], and an increase in intracellular levels of activated caspase-3/-7 detected by immunostaining. Addition of 125 nM staurosporine solution to human hippocampal stem cells differentiated for 3-4 weeks causes neuronal injury and death. Effect of the […] treatment to inhibit the staurosporine-induced neuronal loss and injury are shown. Each bar represents n=6 wells of the mean+/−the SEM from a single experiment.
Effect of the compound treatment to inhibit the staurosporine-induced neuronal loss and injury are shown. Each bar represents n=6 wells of the mean+/−the SEM from a single experiment.
Agents that promote proliferation and neurogenesis are further evaluated for their ability to inhibit neurodegeneration and apoptosis of the human hippocampal multipotent stem cell-derived neurons. Neurodegeneration may be induced in culture using any number of inducers as known by those skilled in the art. Examples of neurodegenerative inducers include: staurosporine, hypoxia reperfusion, free radicals, glutamate agonists, activated monocyte supernatant, beta amyloid peptides and corticosteroids to name a few. Some of the neurogenic agents inhibit loss of neurons, inhibit caspase activation, inhibit nuclear fragmentation or condensation, inhibit lactate dehydrogenase activity among other effects on neurodegeneration. Using staurosporine as an example, 125 nM of a staurosporine solution is added along with 10 μM of one of the listed neurogenic agents to human hippocampal stem cells differentiated for 3-4 weeks.
A number of neurogenic agents inhibit neuronal loss, caspase-3 activity and/or nuclear fragmentation compared to staurosporine vehicle control. These NSI small molecule agents are all effective at in vitro neurogenesis as determined by methods described. More particularly, human hippocampal stem cells differentiated for a period of 3-4 weeks are treated with an agent for 8-24 hrs in a neuronal maintenance media prior to treatment with an apoptotic or neurodegenerative insults such as staurosporin, TNFα and LPS-stimulated monocyte supernatant and the like. Following the treatment period, media is removed from the treated cells and the cells are fixed and stained. Staining may include Hoechst stain, MAP-2ab (AP-20) antibody staining, active caspase-3 antibody or other measures of neurodegeneration and apoptosis. Instrumentation such as a Molecular Devices fluorescent plate reader or a […] Array Scan II instrument and the like may be used to measure the degeneration and apoptosis.
FIGS. 7A, 7B and 7C illustrate an example of a neuroprotection profile of tested compounds against staurosporine-induced human hippocampal neurodegeneration measured by the remaining number of neurons, an increase in nuclear fragmentation, and an increase in intracellular levels of activated caspase-3/-7 detected by immunostaining, respectively. Human hippocampal stem cells that have been differentiated for 3-4 weeks undergo a twenty-four hour treatment with 125 nM staurosporine solution to cause neuronal injury and death. The effect of the compound treatment to inhibit the staurosporine-induced neuronal loss and injury is shown in each of FIGS. 7A, 7B and 7C. Each bar represents n=6 wells of the mean+/−the SEM from a single experiment.

[2] = tested on: human hippocampal stem cells; assay: Cell proliferation, Alamar Blue staining of live cells; assay type: cell-based; conditions: seven days of compound treatment; relative to vehicle control
Experimental: FIG. 1 is a bar graph illustrating an example of a proliferation profile of compounds selected from primary screening. Proliferation is measured after compound treatment for seven days by Alamar Blue staining of live cells per well. Shown are relative values over the vehicle control.
Neural stem cells and progenitor cells differentiate spontaneously in the absence of a mitogen; therefore, undifferentiated mitotic cells are harvested by enzyme treatment to remove residual mitogen, such as basic fibroblast growth factor (bFGF) used in expansion and proliferation of the cells. In one embodiment of the present invention, undifferentiated human hippocampal stem cells (e.g., HH580)/progenitor cells are harvested by enzyme treatment.
The collected cells are seeded for attachment of the cells such as standard 96-well or 384-well plates, pre-coated with extracellular matrix proteins, such as poly-D-lysine and fibronectin (e.g., Biocoat PDL, Fisher). The initial seeding density can be within the range of about 2,000-125,000 cells per well of a 96-well plate. The preferred density, however, is 40,000 cells per well of a 96-well plate which has been optimized for best signal-to-noise ratio as described in pending U.S. patent application Ser. No. 10/728,652. Cell density that is too low retards the initiation of differentiation and results in poor plating efficiency which interferes with the assay. Cell density that is too high leads to inhibition of neurogenesis due to cell-to-cell interaction and paracrine factors which also interfere with the assay. […] For example, for a 384-well plate which has approximately one-fourth of the surface area of a 96-well plate, the initial seeding density should be decreased by one-fourth accordingly.
The cells are passaged and grown for seven days in 15 cm plates in full growth medium according to Neuralstem protocol with 50% of the media changed every other day. Following centrifugation, the call pellet is re-suspended in N2b medium and enough N2b medium is added to the cell suspension to achieve a concentration of […]. The N2b seeding media includes a standard serum-free, growth factor-free, basal media without phenol red that supports healthy neuronal/glial survival. Fibronectin and PBS is completely removed by aspiration from wells of fibronectin-coated 96-well plate(s). 100 μl of N2b medium with or without 2× concentration of screening agents or compounds to be tested are added to each well. Subsequently, 100 μl of the cell suspension is added to each well at a density of 40,000 cells per well. The cell suspension is incubated for two days at 37° C. in the presence of 5% CO2.
On Days 2, 4, and 6 of post-plating, incremental additions of the compounds are made to each well at appropriate concentrations. Therefore, after two days, 100 μl of N2b medium is removed from the wells, and 100 μl of the N2b medium is added. Likewise, on days four and six, 100 μl of N2b medium is removed from the wells and 100 μl of the N2b medium is added, and the cell suspension is again incubated at 37° C. in the presence of 5% CO2.
On day seven, the final day of the culture, a fluorescent dye such as Alamar Blue dye is added to each well. Alamar Blue dye detects metabolic respiration and is a reflection of total cellular activity indicating changes in cell number of neurons. In this regard, 20 μl of Alamar Blue (Biosource International DAL 1025) is added to each well and incubated for two hours at 37° C. in the presence of 5% CO2.
As a preliminary detection of positive activities, the overall immunostaining intensity in each well is read by a fluorescence plate reader. For instance, the fluorescence of the oxidized dye in each well is read by a fluorescent plate reader such as the Molecular Devices Fluorometric Plate Reader. The reader is set on the Read Mode End Point setting at an excitation of 530 nm, an emission of 590 nm, and a cutoff 570 nm. […]

[3] = read-out: Stauro % Inhib Nuclear Frag
[4] = read-out: Stauro % Inhib Caspase-3

SMILES | inhibition at 10 µM [1, 3] | % Prolif (Alamar) [2] | Stauro % Inhib Neuron Number [1] | inhibition at 10 µM [1, 4] | Stauro % Inhib Nuclear Frag [1]
O=C(NC1CCN(Cc2ccccc2)CC1)c1cccnc1N1CCNCC1 [NSI-143] | 123 ± 77% | 97 ± 16% |  |  | 
CCCCNc1c(C2CCN(C(=O)c3ccc(C#N)cc3)CC2)nc2ccccn12 [NSI-149] |  | 216 ± 28% | 47 ± 15% |  | 
CS(=O)(=O)N1CCCCC1C(=O)NCc1ccc(Nc2c(C3CC3)nc3ccccn23)cc1 (centres unmarked) [NSI-127] |  | 181 ± 14% |  |  | 
CCN(CCNC(=O)c1cccnc1NCCC(C)C)Cc1cccnc1 [NSI-190] | 42 ± 30% | 76 ± 14% | 32 ± 1% |  | 
NC(=O)C1CCCN1C(=O)c1cccnc1NCC1CCCCC1 (centres unmarked) [NSI-158] |  | 236 ± 79% | 22 ± 18% | 48 ± 14% | 
CC(C)(C)OC(=O)NCCNC(=O)c1cccnc1NCC1CCCCC1 [NSI-157] |  | 218 ± 140% |  |  | 
COc1ccc(CCNc2ncc(C(N)=O)c(NC3CC3)n2)cc1OC [NSI-130] | 56 ± 17% | 92 ± 33% |  |  | 
CC(C)CCNc1ncccc1C(=O)N1CCN(Cc2ccccc2)CC1 [NSI-189] |  | 70 ± 21% | N/N |  | 
CCCNc1ncc(C(N)=O)c(NC2CCCC2)n1 [NSI-137] | 87 ± 41% | 108 ± 28% |  |  | 
C=CCNC(=O)c1cccnc1NCc1ccccc1OC [NSI-150] |  | 177 ± 44% |  |  | 
O=C(NCc1nc2ccccn2c1NCC1CCCO1)Oc1ccccc1 (centres unmarked) [NSI-182] | 85 ± 45% | 74 ± 8% |  | 108 ± 21% | 
CS(=O)(=O)N(CC(=O)NCc1nc2ccccn2c1NCc1ccccc1)c1ccccc1 [NSI-185] |  | 73 ± 26% |  |  | N/N
O=C(COc1ccccc1)NCc1nc2ccccn2c1NCC1CCCO1 (centres unmarked) [NSI-183] |  | 69 ± 18% |  |  | 
CCCCNc1c(C2CCN(C(=O)CN(CC(C)C)S(C)(=O)=O)CC2)nc2cnccn12 [NSI-106] |  | 211 ± 48% | 16 ± 19% |  | 
O=C(c1cccnc1N1CCNCC1)N1CCN(Cc2ccncc2)CC1 [NSI-142] |  | 115 ± 13% |  |  | 
NC(=O)c1cnc(NCc2ccc(Cl)cc2)nc1NCC1CCCCC1 [NSI-144] |  | 149 ± 15% |  |  | 
